The test system of one data set is human hepatocytes. Nature of the data set: In vitro intrinsic clearance in human hepatocytes. The following applies: human (mixed gender) hepatocytes pooled from 10 donors, 0.545 million cells/mL; 5 μM; up to 60 minutes at 37° C.; calculated, weighted on ratio of D0, D1 and D2. The data set is classed as in vitro ADME. As for the experimental part: (§1) Human (mixed gender) hepatocytes pooled from 10 donors (0.545 million cells/mL) were used to investigate the in vitro intrinsic clearance of DMT and 6 deuterated analogues.
(§2) A concentration of 5 μM was used for all test compounds, as well as sumatriptan, serotonin, benzylamine controls. This concentration was chosen in order to maximise the signal-to-noise ratio, while remaining under the Michaelis constant (Km) for the monoamine oxidase enzyme (MAO). Diltiazem and diclofenac controls were used at a laboratory-validated concentration of 1 μM.
(§3) Test compounds were mixed with the hepatocyte suspension within a 96-well plate and incubated for up to 60 minutes at 37° C. […] At 7 time points, small aliquots were withdrawn, and the test compound/blend concentration therein was measured by LC-MS/MS. The time points measured were 2, 4, 8, 15, 30, 45 and 60 minutes. […]
(§4) The MRM transitions were determined from a preliminary analysis of DMT samples containing either no deuterium (for D0 transition), or high levels of either D1 or D2 deuteration (for the D1 and D2 transitions respectively).
(§5) The resulting concentration-time profile was then used to calculate intrinsic clearance (CLint) and half-life (t½). […] Intrinsic clearance is calculated from the slope/elimination rate constant and the formula is CLint=(−1000*slope)/cell density in 1E6 cells/ml, to give units of microlitre/min/million cells. […]

Data set [1] in a line: In vitro intrinsic clearance in human hepatocytes. The data set is classed as in vitro ADME. The following applies: both sexes, pooled hepatocytes in suspension, human (mixed gender) hepatocytes pooled from 10 donors, 0.545 million cells/mL, up to 60 minutes at 37° C., weighted on ratio of D0, D1 and D2. As for the experimental part:
as §1, §2, §3, §4, §5

One may read the hepatocyte CLint as a measure of how fast metabolising enzymes remove a compound, apart from limits set by blood flow. Take `CN(C)CCc1c[nH]c2ccccc12` [DMT, N,N-dimethyltryptamine]: the Half-life with human hepatocytes is 1.54 h. Further, the hepatocyte CLint at 5 μM in data set [1] is 13.8 µL/min/1e6 cells.

Source of the values: patent US11771681B2, “Therapeutic compounds” (SMALL PHARMA LTD, priority 2019, dated 2023).
